Test results published in ChEMBL document CHEMBL1201862, “PubChem BioAssay data set” (2004).
The source made the active and inactive calls.

How the values were obtained:
[1] = Counterscreen for IDE inhibitors: Luminescence-based cell-based high throughput dose response assay to identify compounds that are cytotoxic to HEK cells. [Related pubchem assays: 434962 (Primary screen (IDE inhibitors in singlicate)), 449730 (Counterscreen (Cytotoxicity in triplicate)), 435028 (Confirmation (IDE inhibitors in triplicate)) …; type: functional; conditions: HEK293
[2] = biological target: T1, Kappa-type opioid receptor (Homo sapiens, UniProt P41145); type: functional
[3] = system: BJ; test: cells; type: functional, cell-based; conditions: Homo sapiens
[4] = biological target: T1, Kappa-type opioid receptor; type: functional; remark: listed apart in the source
[5] = system: BJ; test: BJ-TERT fibroblast viability loss – cell-based, RAS-independent, luminescence, dose response (AID 1933); type: functional; conditions: Homo sapiens
[6] = DRD fibroblast viability loss – cell-based, non-viral oncogenic, luminescence, dose response (AID 1934); type: functional; conditions: Homo sapiens
[7] = biological target: Beta-galactosidase (Escherichia coli, UniProt Q8VNN2); type: functional
[8] = system: BJ; test: BJ-TERT-LT-ST fibroblast viability loss – cell-based, RAS-independent, luminescence, dose response (AID 1935); type: functional; conditions: Homo sapiens;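 also: BJ fibroblasts immortalized with TERT plus LT and ST oncogenes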
[9] = biological target: T2, Insulin-degrading enzyme (Homo sapiens, UniProt P14735); test: Dose Response: Fluorescence polarization-based cell-based high throughput dose response assay for inhibitors of insulin-degrading enzyme (IDE). [Related pubchem assays: 434962 (Primary screen (IDE inhibitors in singlicate)), 449730 (Counterscreen (Cytotoxicity in triplicate)), 435028 (Confirmation (IDE inhibitors in triplicate)), 434984 (Summary …; type: functional
T2 sequence (P14735 whole entry): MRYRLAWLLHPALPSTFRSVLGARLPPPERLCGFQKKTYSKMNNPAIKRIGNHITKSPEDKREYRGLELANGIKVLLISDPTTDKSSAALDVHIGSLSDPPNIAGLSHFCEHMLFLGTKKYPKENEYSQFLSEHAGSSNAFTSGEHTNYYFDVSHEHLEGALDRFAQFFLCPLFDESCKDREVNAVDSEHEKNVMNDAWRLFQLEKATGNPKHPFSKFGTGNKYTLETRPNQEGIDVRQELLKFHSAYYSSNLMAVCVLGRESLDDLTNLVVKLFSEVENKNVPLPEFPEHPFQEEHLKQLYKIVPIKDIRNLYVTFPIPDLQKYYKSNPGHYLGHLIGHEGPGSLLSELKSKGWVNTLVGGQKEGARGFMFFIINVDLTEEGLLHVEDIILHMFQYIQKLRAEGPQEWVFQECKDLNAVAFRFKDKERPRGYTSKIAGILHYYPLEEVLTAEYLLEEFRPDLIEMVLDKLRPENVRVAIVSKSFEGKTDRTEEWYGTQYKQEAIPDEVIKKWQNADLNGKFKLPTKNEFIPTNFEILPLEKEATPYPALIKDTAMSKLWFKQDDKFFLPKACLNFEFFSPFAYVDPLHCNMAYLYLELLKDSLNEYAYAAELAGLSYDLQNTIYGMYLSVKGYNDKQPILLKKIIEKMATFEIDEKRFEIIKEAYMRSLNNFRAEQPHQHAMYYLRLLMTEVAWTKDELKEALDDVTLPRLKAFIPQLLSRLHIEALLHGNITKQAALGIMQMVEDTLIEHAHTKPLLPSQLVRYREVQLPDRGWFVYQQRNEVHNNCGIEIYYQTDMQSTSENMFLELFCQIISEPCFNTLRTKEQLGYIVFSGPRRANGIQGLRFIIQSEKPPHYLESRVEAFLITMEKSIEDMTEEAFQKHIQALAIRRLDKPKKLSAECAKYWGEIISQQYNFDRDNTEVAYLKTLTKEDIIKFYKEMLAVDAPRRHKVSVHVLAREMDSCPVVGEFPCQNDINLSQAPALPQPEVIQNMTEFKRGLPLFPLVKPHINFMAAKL

[10] = biological target: 5-hydroxytryptamine receptor 1E (Homo sapiens, UniProt P28566); test: Counterscreen assay for S1P3 antagonists: Dose response cell-based high throughput screening assay to identify antagonists of the 5-Hydroxytryptamine Receptor Subtype 1E (5HT1E). [Related pubchem assays: 1429, 485 ]; type: functional
[11] = biological target: T3, Short transient receptor potential channel 4 (Mus musculus, UniProt Q9QUQ5); test: calcium entry via TRPC4 opening agents – cell-based, HEK293 TRPC4/mu-opioid, Fluo-4 calcium, dose response (AID 434937); type: functional
T3 sequence (Q9QUQ5 whole entry): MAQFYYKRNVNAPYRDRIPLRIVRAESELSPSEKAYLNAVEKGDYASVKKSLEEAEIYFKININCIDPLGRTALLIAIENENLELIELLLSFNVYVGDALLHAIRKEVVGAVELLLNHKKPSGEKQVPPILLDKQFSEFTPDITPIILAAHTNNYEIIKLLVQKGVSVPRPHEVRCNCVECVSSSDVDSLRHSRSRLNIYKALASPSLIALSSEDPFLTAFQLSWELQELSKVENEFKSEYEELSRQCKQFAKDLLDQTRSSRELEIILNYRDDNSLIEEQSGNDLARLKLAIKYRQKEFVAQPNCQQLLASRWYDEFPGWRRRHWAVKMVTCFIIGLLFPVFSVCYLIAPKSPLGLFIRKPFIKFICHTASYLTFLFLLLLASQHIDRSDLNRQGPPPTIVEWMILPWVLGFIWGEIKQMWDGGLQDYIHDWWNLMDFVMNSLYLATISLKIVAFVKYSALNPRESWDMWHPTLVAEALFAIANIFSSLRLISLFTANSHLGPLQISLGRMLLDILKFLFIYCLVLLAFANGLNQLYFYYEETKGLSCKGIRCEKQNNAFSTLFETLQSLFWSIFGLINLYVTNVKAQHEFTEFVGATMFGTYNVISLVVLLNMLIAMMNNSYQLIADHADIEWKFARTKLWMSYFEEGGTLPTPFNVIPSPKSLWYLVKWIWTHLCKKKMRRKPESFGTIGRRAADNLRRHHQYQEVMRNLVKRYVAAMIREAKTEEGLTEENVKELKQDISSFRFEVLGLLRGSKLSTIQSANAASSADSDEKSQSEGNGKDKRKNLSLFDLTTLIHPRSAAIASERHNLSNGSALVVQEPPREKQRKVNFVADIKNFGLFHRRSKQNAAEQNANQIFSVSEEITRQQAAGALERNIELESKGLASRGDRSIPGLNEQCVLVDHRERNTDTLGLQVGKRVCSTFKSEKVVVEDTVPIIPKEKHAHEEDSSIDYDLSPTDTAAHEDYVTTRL

[12] = biological target: Sphingosine 1-phosphate receptor 3 (Homo sapiens, UniProt Q99500); test: Dose response cell-based high throughput screening assay for antagonists of the Sphingosine 1-Phosphate Receptor 3 (S1P3). [Related pubchem assays: 1429, 485 ]; type: functional
[13] = biological target: T4, Neuropeptide Y receptor type 1 (Homo sapiens, UniProt P25929); type: functional;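 also: HEK293 cells with a CNG channel challenged with NPY then isoproterenol; potency as antagonist that reverses NPY suppression of cAMP signal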
T4 sequence (P25929 whole entry): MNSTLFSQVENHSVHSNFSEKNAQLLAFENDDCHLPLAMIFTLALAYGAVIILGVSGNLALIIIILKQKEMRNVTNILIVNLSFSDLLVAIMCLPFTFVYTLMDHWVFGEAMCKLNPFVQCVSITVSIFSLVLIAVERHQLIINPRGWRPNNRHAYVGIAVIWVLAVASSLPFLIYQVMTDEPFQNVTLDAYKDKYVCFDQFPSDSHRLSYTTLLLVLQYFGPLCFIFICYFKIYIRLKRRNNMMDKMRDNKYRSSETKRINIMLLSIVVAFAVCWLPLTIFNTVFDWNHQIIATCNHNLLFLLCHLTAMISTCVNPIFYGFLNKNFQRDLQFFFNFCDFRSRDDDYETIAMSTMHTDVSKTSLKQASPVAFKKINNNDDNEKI

[14] = biological target: T5, Neuropeptide Y receptor type 2 (Homo sapiens, UniProt P49146); type: functional, cell-based;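 also: HEK293 cells expressing the receptor and a CNG channel; stimulus was NPY near EC95 followed by isoproterenol to raise cAMP; antagonist potency measured as restoring cAMP signal that NPY suppresses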
T5 sequence (P49146 whole entry): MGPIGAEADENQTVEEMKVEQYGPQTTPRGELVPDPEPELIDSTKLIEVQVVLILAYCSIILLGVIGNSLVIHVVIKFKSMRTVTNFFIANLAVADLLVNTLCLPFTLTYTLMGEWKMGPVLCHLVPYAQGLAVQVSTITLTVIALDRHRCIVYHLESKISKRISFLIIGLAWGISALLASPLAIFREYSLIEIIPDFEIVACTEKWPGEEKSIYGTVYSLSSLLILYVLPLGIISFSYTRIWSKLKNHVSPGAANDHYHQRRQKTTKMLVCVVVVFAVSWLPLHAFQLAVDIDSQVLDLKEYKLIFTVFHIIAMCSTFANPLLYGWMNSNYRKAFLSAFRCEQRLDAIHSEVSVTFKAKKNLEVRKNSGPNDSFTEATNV

[15] = biological target: Cytochrome P450 2C9 (Homo sapiens, UniProt P11712); conditions: Potency
[16] = biological target: Luciferin 4-monooxygenase (Photinus pyralis, UniProt P08659); test: Counter Screen for Luciferase-based Assay Positives. [Related pubchem assays: 620, 618, 411 ]
[17] = cells; type: functional
[18] = system: HT-1080; test: HT1080 cell viability loss – fluorescence readout (AID 620); type: functional, cell-based; conditions: Homo sapiens
[19] = biological target: FAD-linked sulfhydryl oxidase ALR (Homo sapiens, UniProt P55789); test: ALR-catalysed DTT oxidation blockers – biochemical, H2O2 detection, luminescence, cherry-pick, dose response (AID 493248)
[20] = biological target: G2/mitotic-specific cyclin-B1 (Homo sapiens, UniProt P14635); test: Counterscreen assay for inhibitors of Wee1 degradation: dose response cell-based assay to identify inhibitors of cyclin B degradation. [Related pubchem assays: 1410, 1321 ]; type: functional
[21] = biological target: T6, Heat shock factor protein 1 (Mus musculus, UniProt P38532); test: enhancement of HSF1-driven luciferase signal – cell-based, NIH3T3, luminescence, dose retest, confirmation (AID 435004); type: functional;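 also: stress induced by proteasome inhibitor MG132 added 30 min after compound; luciferase reporter driven by HSF1 response element in NIH3T3 cells; actives raise luminescence as potentiators of the MG132 stress response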
T6 sequence (P38532 whole entry): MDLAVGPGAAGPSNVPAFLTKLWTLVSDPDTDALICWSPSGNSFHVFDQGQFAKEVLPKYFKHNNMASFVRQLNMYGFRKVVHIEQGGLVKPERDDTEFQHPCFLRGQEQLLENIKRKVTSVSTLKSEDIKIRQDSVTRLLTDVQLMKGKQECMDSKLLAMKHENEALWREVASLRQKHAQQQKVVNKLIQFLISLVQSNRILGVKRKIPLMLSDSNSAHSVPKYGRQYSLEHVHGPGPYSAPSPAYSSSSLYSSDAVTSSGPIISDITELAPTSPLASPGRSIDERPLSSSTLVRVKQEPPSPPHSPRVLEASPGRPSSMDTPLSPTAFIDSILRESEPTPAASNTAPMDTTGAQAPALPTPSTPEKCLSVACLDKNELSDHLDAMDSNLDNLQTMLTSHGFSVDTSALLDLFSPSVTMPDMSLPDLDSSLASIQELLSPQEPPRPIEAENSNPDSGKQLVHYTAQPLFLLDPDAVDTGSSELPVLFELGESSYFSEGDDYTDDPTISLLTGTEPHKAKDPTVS

[22] = biological target: Wee1-like protein kinase (Homo sapiens, UniProt P30291); test: Dose Response Cell-based Assay for Inhibitors of Wee1 Degradation. [Related pubchem assays: 1410, 1321 ]; type: functional
[23] = biological target: Mothers against decapentaplegic homolog 3 (Homo sapiens, UniProt P84022); test: blockers of Smad3 complex formation in lysate – cell lysate, secondary confirmation, chemiluminescent ELISA, HEK293 lysate, dose response (AID 1058); type: functional
[24] = CCR5-tropic HIV-1 fusion blockers – cell-based, CCR5-tropic Env, dose response (AID 2279); type: functional

T1 sequence (P41145 whole entry): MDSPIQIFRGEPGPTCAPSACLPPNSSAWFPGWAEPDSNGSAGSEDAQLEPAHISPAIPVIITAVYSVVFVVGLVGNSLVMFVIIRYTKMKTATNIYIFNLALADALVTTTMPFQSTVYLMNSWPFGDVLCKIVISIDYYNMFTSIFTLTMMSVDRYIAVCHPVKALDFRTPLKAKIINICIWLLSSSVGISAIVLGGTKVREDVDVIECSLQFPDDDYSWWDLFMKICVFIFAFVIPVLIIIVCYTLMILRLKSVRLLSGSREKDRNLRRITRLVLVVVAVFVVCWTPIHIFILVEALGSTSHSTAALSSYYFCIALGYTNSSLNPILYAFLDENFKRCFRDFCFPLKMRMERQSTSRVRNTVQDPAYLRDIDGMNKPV
Sequence of 5-hydroxytryptamine receptor 1E (P28566 whole entry): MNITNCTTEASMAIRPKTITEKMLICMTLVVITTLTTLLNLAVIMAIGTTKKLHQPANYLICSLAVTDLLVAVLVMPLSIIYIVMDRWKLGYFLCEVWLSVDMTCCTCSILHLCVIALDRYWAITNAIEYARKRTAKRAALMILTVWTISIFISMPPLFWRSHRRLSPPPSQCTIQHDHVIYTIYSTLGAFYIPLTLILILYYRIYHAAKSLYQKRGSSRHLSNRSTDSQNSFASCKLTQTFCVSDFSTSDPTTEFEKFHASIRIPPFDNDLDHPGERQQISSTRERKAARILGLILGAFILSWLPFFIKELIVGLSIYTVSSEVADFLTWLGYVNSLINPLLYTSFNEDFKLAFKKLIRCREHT
Sequence of Mothers against decapentaplegic homolog 3 (P84022 whole entry, the tested form may be a part): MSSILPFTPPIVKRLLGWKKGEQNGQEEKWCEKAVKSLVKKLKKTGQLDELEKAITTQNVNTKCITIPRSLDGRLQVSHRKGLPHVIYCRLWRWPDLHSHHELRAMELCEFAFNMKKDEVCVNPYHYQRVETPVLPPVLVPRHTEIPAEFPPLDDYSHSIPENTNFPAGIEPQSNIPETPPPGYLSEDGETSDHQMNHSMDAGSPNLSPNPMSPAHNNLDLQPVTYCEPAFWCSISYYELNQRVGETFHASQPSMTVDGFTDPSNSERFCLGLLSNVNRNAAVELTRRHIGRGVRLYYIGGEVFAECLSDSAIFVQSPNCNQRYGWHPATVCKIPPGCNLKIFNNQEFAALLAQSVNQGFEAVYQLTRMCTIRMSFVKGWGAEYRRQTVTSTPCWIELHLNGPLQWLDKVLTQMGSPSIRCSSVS
Sequence of Cytochrome P450 2C9 (P11712 whole entry): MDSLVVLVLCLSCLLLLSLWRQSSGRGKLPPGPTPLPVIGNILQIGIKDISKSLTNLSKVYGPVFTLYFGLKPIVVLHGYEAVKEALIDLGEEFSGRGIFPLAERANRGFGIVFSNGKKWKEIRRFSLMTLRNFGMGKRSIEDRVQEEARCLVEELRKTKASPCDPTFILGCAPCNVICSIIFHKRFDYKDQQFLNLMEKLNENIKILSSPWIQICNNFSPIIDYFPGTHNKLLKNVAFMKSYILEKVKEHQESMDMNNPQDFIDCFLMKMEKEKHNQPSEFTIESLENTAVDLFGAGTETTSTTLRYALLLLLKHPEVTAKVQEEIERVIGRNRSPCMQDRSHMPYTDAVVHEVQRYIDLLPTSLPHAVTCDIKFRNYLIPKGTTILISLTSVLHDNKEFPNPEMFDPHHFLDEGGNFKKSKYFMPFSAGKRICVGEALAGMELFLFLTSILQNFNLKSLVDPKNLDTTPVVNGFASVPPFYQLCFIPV
Sequence of Wee1-like protein kinase (P30291 whole entry): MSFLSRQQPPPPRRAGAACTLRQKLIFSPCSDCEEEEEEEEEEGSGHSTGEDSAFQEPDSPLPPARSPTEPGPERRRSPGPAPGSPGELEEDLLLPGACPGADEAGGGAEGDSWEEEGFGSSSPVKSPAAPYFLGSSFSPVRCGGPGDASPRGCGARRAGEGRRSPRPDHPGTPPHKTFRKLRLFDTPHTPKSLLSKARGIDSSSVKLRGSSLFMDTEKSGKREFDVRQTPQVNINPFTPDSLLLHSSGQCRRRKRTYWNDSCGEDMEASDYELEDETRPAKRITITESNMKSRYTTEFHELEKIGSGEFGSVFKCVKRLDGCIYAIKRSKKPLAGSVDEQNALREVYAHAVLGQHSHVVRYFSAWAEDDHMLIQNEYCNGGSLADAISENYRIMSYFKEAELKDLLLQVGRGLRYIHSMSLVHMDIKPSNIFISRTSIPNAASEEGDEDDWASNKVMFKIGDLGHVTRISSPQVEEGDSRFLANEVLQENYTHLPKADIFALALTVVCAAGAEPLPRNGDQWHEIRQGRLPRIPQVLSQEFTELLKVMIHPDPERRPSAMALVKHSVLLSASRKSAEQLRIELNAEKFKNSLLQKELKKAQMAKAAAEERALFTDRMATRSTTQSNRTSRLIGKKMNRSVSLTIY
Sequence of G2/mitotic-specific cyclin-B1 (P14635 whole entry): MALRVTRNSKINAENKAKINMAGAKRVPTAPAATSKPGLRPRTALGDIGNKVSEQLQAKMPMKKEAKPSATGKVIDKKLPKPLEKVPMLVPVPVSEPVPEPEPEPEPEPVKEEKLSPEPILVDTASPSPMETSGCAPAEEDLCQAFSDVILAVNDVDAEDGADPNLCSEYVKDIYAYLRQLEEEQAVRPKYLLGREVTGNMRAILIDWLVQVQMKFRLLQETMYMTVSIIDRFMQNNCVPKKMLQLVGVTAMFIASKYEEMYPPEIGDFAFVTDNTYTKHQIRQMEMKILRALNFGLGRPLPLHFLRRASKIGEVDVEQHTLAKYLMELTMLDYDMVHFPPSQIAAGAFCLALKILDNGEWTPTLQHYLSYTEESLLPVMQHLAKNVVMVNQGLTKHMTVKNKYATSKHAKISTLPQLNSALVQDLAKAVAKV
Sequence of Beta-galactosidase (Q8VNN2 whole entry): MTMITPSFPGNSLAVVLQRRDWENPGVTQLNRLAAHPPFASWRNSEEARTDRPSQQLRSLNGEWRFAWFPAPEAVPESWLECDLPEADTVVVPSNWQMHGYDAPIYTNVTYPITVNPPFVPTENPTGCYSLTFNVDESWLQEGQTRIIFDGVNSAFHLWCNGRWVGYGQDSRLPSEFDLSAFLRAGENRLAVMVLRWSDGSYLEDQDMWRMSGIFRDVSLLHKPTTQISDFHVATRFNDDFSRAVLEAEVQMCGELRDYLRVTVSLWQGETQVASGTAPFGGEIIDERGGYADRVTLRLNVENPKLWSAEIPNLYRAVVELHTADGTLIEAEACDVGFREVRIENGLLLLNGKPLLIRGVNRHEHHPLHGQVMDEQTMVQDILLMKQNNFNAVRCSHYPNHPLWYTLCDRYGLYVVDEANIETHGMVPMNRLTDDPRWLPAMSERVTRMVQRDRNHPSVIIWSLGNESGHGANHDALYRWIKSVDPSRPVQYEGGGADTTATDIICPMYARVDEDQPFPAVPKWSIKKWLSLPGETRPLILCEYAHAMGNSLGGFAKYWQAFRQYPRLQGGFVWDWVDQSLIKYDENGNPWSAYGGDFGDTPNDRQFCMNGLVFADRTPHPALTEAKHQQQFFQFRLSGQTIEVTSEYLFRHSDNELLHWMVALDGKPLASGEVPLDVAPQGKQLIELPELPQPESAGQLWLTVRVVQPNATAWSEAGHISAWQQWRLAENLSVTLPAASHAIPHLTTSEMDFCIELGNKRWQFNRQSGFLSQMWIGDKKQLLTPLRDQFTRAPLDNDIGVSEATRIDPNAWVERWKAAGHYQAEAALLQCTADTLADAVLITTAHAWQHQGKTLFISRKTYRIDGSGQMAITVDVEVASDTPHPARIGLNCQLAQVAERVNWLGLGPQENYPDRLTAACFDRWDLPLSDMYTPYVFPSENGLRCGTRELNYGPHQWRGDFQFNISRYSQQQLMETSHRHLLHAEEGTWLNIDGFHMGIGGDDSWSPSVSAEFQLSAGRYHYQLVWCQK
Sequence of FAD-linked sulfhydryl oxidase ALR (P55789 whole entry): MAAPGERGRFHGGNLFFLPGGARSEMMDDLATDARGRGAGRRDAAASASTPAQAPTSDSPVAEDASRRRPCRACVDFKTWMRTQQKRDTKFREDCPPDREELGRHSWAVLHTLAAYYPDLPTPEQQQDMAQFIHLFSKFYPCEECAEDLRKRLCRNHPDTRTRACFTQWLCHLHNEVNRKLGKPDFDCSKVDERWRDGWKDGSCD
Sequence of Sphingosine 1-phosphate receptor 3 (Q99500 whole entry): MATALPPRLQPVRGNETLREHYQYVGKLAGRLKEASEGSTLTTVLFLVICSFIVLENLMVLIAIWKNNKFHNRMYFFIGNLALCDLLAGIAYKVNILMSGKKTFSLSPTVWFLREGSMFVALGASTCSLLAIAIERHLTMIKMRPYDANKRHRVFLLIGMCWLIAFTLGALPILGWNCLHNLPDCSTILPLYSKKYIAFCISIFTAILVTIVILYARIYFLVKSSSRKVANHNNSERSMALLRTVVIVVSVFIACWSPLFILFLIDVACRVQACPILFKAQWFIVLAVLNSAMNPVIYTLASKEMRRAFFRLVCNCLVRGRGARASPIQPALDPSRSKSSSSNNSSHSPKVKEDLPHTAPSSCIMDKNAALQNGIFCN
Sequence of Luciferin 4-monooxygenase (P08659 whole entry): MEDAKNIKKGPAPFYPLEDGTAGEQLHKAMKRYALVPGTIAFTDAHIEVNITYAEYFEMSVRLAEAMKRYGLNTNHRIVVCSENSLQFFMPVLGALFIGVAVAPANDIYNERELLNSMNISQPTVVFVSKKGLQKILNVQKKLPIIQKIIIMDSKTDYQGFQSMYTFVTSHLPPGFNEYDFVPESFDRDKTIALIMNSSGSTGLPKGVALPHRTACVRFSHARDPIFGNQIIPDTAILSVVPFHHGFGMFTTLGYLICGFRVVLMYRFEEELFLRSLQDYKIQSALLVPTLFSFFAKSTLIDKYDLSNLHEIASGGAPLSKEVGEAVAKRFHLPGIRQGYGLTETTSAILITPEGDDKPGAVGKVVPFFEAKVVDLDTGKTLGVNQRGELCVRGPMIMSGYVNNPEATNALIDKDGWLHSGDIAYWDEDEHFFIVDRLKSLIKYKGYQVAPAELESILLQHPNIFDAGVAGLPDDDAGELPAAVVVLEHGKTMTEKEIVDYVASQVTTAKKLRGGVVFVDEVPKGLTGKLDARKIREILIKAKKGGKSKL

**Q.** For `CCN1C(=O)/C(=C/C=C2/Sc3ccccc3N2CCO)SC1=S`, which IC50 [1] is on record?
**A.** 12.1 µM (not active)

**Q.** And the IC50 [2]?
**A.** 27.6 µM

**Q.** What about the EC50 [3] of the same molecule?
**A.** 30.4 µM (active)

**Q.** What about the IC50 [4] of the same molecule?
**A.** 13.2 µM (active)

**Q.** And the EC50 [5]?
**A.** 28.7 µM (active)

**Q.** What about the EC50 [6] of the same molecule?
**A.** 50.2 µM (active)

**Q.** What about the EC50 [7] of the same molecule?
**A.** 16.7 µM (active)

**Q.** And the EC50 [8]?
**A.** > 150 µM (not active)

**Q.** And the IC50 [9]?
**A.** > 56 µM (not active)

**Q.** With `O=C(CCCN1CCC2(CC1)C(=O)NCN2c1ccccc1)c1ccc(F)cc1` [SPIPERONE] as the molecule, how does the IC50 [10] read?
**A.** > 50 µM (not active)

**Q.** What about the EC50 [11] of the same molecule?
**A.** 6.68 µM (active)

**Q.** And the IC50 [12]?
**A.** > 50 µM (not active)

**Q.** With `OC[C@H]1O[C@@H](n2cnc3c(Nc4ccccc4)ncnc32)[C@H](O)[C@@H]1O` [N6-PHENYLADENOSINE] as the molecule, how does the IC50 [13] read?
**A.** 7.83 µM (active)

**Q.** And the IC50 [14]?
**A.** 4.73 µM (active)

**Q.** For `CCOC(=O)OCC1OC(C#Cc2ccccc2)C=CC1OC(=O)OCC` (centres undefined), which AC50 [15] is on record?
**A.** 0.0794 µM (inconclusive)

**Q.** What does the source list for `Cc1ccc(C(=O)COC(=O)c2cccs2)cc1`?
**A.** EC50 [16]: 0.53 µM (active); IC50 [17]: 24.3 µM (active); EC50 [18]: > 50 µM (not active)

**Q.** With `Cc1ccc2[nH]c(NCc3ccccc3)nc2c1` as the molecule, how does the AC50 [19] read?
**A.** 6.87 µM (active)

**Q.** And the EC50 [20]?
**A.** > 49.7 µM (not active)

**Q.** What about the EC50 [21] of the same molecule?
**A.** > 260 µM (inactive)

**Q.** And the EC50 [22]?
**A.** > 49.7 µM (not active)

**Q.** Which IC50 [23] does the source give for `COc1cc(C(c2cc3c(cc2O)OCO3)N2CCCC2)cc(OC)c1OC` (centres undefined) here?
**A.** > 40 µM (not active)

**Q.** Which IC50 [24] does the source give for `Cc1ccc(-c2nc(SCC(=O)Nc3ccccc3OC(F)F)c3c(C)c(C(=O)O)sc3n2)cc1` here?
**A.** 18.8 µM (active)
